Converted amounts (≈) assume the structure as drawn. The source made the active and inactive calls. No cut-off for these calls is given here.
Tests used:
Nakaseomyces glabratus [1] = experiment: Fungicidal activity against Candida glabrata MTCC 3019 incubated for 24 hrs followed by transfer of microbial suspension to Sabouraud dextrose agar plates and measured after 24 hrs post transfer; type: functional; conditions: MTCC 3019, 24 h
Nakaseomyces glabratus [2] = experiment: Antifungal activity against Candida glabrata MTCC 3019 after 24 hrs by well diffusion method; type: functional; conditions: MTCC 3019, 24 h
Candida albicans [3] = experiment: Fungicidal activity against Candida albicans MTCC 7315 incubated for 24 hrs followed by transfer of microbial suspension to Sabouraud dextrose agar plates and measured after 24 hrs post transfer; type: functional; conditions: MTCC 7315, 24 h
Candida albicans [4] = experiment: Fungicidal activity against Candida albicans MTCC 183 incubated for 24 hrs followed by transfer of microbial suspension to Sabouraud dextrose agar plates and measured after 24 hrs post transfer; type: functional; conditions: MTCC 183, 24 h
Candida albicans [5] = experiment: Fungicidal activity against Candida albicans MTCC 3958 incubated for 24 hrs followed by transfer of microbial suspension to Sabouraud dextrose agar plates and measured after 24 hrs post transfer; type: functional
Pseudomonas aeruginosa [6] = experiment: Antibiofilm activity against Pseudomonas aeruginosa MTCC 2453 after 24 hrs by crystal violet staining-based assay; type: functional, organism-based
Pseudomonas aeruginosa [7] = experiment: Bactericidal activity against Pseudomonas aeruginosa MTCC 2453 incubated for 24 hrs followed by transfer of microbial suspension to Mueller Hinton agar plates and measured after 24 hrs post transfer; type: functional
Pichia sporocuriosa [8] = experiment: Fungicidal activity against Issatchenkia hanoiensis MTCC 4755 incubated for 24 hrs followed by transfer of microbial suspension to Sabouraud dextrose agar plates and measured after 24 hrs post transfer; type: functional; conditions: MTCC 4755, 24 h
Candida albicans [9] = experiment: Antifungal activity against Candida albicans MTCC 3018 after 24 hrs by well diffusion method; type: functional
Micrococcus luteus [10] = experiment: Bactericidal activity against Micrococcus luteus MTCC 2470 incubated for 24 hrs followed by transfer of microbial suspension to Mueller Hinton agar plates and measured after 24 hrs post transfer; type: functional
Micrococcus luteus [11] = experiment: Antibacterial activity against Micrococcus luteus MTCC 2470 after 24 hrs by well diffusion method; type: functional
Candida albicans [12] = experiment: Antifungal activity against Candida albicans MTCC 854 after 24 hrs by well diffusion method; type: functional
Candida albicans [13] = experiment: Antifungal activity against Candida albicans MTCC 183 after 24 hrs by well diffusion method; type: functional; conditions: MTCC 183, 24 h
Escherichia coli [14] = experiment: Antibacterial activity against Escherichia coli MTCC 739 after 24 hrs by well diffusion method; type: functional
Candida parapsilosis [15] = experiment: Antifungal activity against Candida parapsilosis MTCC 1744 after 24 hrs by well diffusion method; type: functional; conditions: MTCC 1744, 24 h
[Candida] aaseri [16] = Antifungal activity against Candida aaseri MTCC 1962 after 24 hrs by well diffusion method; type: functional; conditions: Yamadazyma aaseri, MTCC 1962, 24 h
Candida albicans [17] = experiment: Antifungal activity against Candida albicans MTCC 1637 after 24 hrs by well diffusion method; type: functional
Raoultella planticola [18] = experiment: Antibacterial activity against Klebsiella planticola MTCC 530 after 24 hrs by well diffusion method; type: functional
Candida albicans [19] = experiment: Fungicidal activity against Candida albicans MTCC 854 incubated for 24 hrs followed by transfer of microbial suspension to Sabouraud dextrose agar plates and measured after 24 hrs post transfer; type: functional
Pichia kudriavzevii [20] = experiment: Fungicidal activity against Candida krusei MTCC 3020 incubated for 24 hrs followed by transfer of microbial suspension to Sabouraud dextrose agar plates and measured after 24 hrs post transfer; type: functional; conditions: MTCC 3020, 24 h
Staphylococcus aureus [21] = experiment: Bactericidal activity against Staphylococcus aureus MTCC 96 incubated for 24 hrs followed by transfer of microbial suspension to Mueller Hinton agar plates and measured after 24 hrs post transfer; type: functional; conditions: MTCC 96, 24 h
Pichia kudriavzevii [22] = experiment: Antifungal activity against Candida krusei MTCC 3020 after 24 hrs by well diffusion method; type: functional; conditions: MTCC 3020, 24 h
Staphylococcus aureus [23] = experiment: Antibacterial activity against Staphylococcus aureus MTCC 96 after 24 hrs by well diffusion method; type: functional; conditions: MTCC 96, 24 h
Staphylococcus aureus [24] = experiment: Antibiofilm activity against Staphylococcus aureus MTCC 96 after 24 hrs by crystal violet staining-based assay; type: functional, organism-based; conditions: Staphylococcus aureus, MTCC 96, 24 h; read-out: IC50
Staphylococcus aureus [25] = experiment: Bactericidal activity against Staphylococcus aureus MLS16 MTCC 2940 incubated for 24 hrs followed by transfer of microbial suspension to Mueller Hinton agar plates and measured after 24 hrs post transfer; type: functional
Raoultella planticola [26] = experiment: Antibiofilm activity against Klebsiella planticola MTCC 530 after 24 hrs by crystal violet staining-based assay; type: functional, organism-based
Candida parapsilosis [27] = experiment: Fungicidal activity against Candida parapsilosis MTCC 1744 incubated for 24 hrs followed by transfer of microbial suspension to Sabouraud dextrose agar plates and measured after 24 hrs post transfer; type: functional; conditions: Lodderomyces parapsilosis, MTCC 1744, 24 h
Candida albicans [28] = experiment: Antifungal activity against Candida albicans MTCC 3017 after 24 hrs by well diffusion method; type: functional; conditions: MTCC 3017, 24 h
Escherichia coli [29] = experiment: Bactericidal activity against Escherichia coli MTCC 739 incubated for 24 hrs followed by transfer of microbial suspension to Mueller Hinton agar plates and measured after 24 hrs post transfer; type: functional
Candida albicans [30] = experiment: Fungicidal activity against Candida albicans MTCC 4748 incubated for 24 hrs followed by transfer of microbial suspension to Sabouraud dextrose agar plates and measured after 24 hrs post transfer; type: functional; conditions: MTCC 4748, 24 h
Candida albicans [31] = experiment: Fungicidal activity against Candida albicans MTCC 1637 incubated for 24 hrs followed by transfer of microbial suspension to Sabouraud dextrose agar plates and measured after 24 hrs post transfer; type: functional
Bacillus subtilis [32] = experiment: Bactericidal activity against Bacillus subtilis MTCC 121 incubated for 24 hrs followed by transfer of microbial suspension to Mueller Hinton agar plates and measured after 24 hrs post transfer; type: functional
Candida albicans [33] = experiment: Antifungal activity against Candida albicans MTCC 7315 after 24 hrs by well diffusion method; type: functional; conditions: MTCC 7315, 24 h
[Candida] aaseri [34] = Fungicidal activity against Candida aaseri MTCC 1962 incubated for 24 hrs followed by transfer of microbial suspension to Sabouraud dextrose agar plates and measured after 24 hrs post transfer; type: functional; conditions: Yamadazyma aaseri, MTCC 1962, 24 h
Bacillus subtilis [35] = experiment: Antibacterial activity against Bacillus subtilis MTCC 121 after 24 hrs by well diffusion method; type: functional
Staphylococcus aureus [36] = experiment: Antibacterial activity against Staphylococcus aureus MLS16 MTCC 2940 after 24 hrs by well diffusion method; type: functional
Bacillus subtilis [37] = experiment: Antibiofilm activity against Bacillus subtilis MTCC 121 after 24 hrs by crystal violet staining-based assay; type: functional, organism-based
Candida albicans [38] = experiment: Fungicidal activity against Candida albicans MTCC 3017 incubated for 24 hrs followed by transfer of microbial suspension to Sabouraud dextrose agar plates and measured after 24 hrs post transfer; type: functional; conditions: MTCC 3017, 24 h
Candida albicans [39] = experiment: Fungicidal activity against Candida albicans MTCC 227 incubated for 24 hrs followed by transfer of microbial suspension to Sabouraud dextrose agar plates and measured after 24 hrs post transfer; type: functional
Candida albicans [40] = experiment: Fungicidal activity against Candida albicans MTCC 3018 incubated for 24 hrs followed by transfer of microbial suspension to Sabouraud dextrose agar plates and measured after 24 hrs post transfer; type: functional
Raoultella planticola [41] = experiment: Bactericidal activity against Klebsiella planticola MTCC 530 incubated for 24 hrs followed by transfer of microbial suspension to Mueller Hinton agar plates and measured after 24 hrs post transfer; type: functional
Candida albicans [42] = experiment: Antifungal activity against Candida albicans MTCC 4748 after 24 hrs by well diffusion method; type: functional; conditions: MTCC 4748, 24 h
Staphylococcus aureus [43] = experiment: Antibiofilm activity against Staphylococcus aureus MLS16 MTCC 2940 after 24 hrs by crystal violet staining-based assay; type: functional, organism-based
Pichia sporocuriosa [44] = experiment: Antifungal activity against Issatchenkia hanoiensis MTCC 4755 after 24 hrs by well diffusion method; type: functional; conditions: MTCC 4755, 24 h
Candida albicans [45] = experiment: Antifungal activity against Candida albicans MTCC 227 after 24 hrs by well diffusion method; type: functional
Candida albicans [46] = experiment: Antifungal activity against Candida albicans MTCC 3958 after 24 hrs by well diffusion method; type: functional
Pseudomonas aeruginosa [47] = experiment: Antibacterial activity against Pseudomonas aeruginosa MTCC 2453 after 24 hrs by well diffusion method; type: functional

Compound: O=C(NCc1ccccc1)c1nc(-c2ccccc2)c2c(C(F)(F)F)cc(-c3ccccc3)nc2n1
- MFC (Nakaseomyces glabratus [1]): 31.2 µg/mL (≈ 64.4 µM)
- MIC (Nakaseomyces glabratus [2]): 15.6 µg/mL (≈ 32.2 µM)
- MFC (Candida albicans [3]): 62.5 µg/mL (≈ 129 µM)
- MFC (Candida albicans [4]): 62.5 µg/mL (≈ 129 µM)
- MFC (Candida albicans [5]): inactive
- IC50 (Pseudomonas aeruginosa [6]): Not Active
- MBC (Pseudomonas aeruginosa [7]): inactive
- MFC (Pichia sporocuriosa [8]): 62.5 µg/mL (≈ 129 µM)
- MIC (Candida albicans [9]): inactive
- MBC (Micrococcus luteus [10]): inactive
- MIC (Micrococcus luteus [11]): inactive
- MIC (Candida albicans [12]): inactive
- MIC (Candida albicans [13]): 31.2 µg/mL (≈ 64.4 µM)
- MIC (Escherichia coli [14]): inactive
- MIC (Candida parapsilosis [15]): 31.2 µg/mL (≈ 64.4 µM)
- MIC ([Candida] aaseri [16]): 31.2 µg/mL (≈ 64.4 µM)
- MIC (Candida albicans [17]): inactive
- MIC (Raoultella planticola [18]): inactive
- MFC (Candida albicans [19]): inactive
- MFC (Pichia kudriavzevii [20]): 31.2 µg/mL (≈ 64.4 µM)
- MBC (Staphylococcus aureus [21]): 31.2 µg/mL (≈ 64.4 µM)
- MIC (Pichia kudriavzevii [22]): 15.6 µg/mL (≈ 32.2 µM)
- MIC (Staphylococcus aureus [23]): 31.2 µg/mL (≈ 64.4 µM)
- IC50 (Staphylococcus aureus [24]): 21.6 µg/mL (≈ 44.6 µM)
- MBC (Staphylococcus aureus [25]): inactive
- IC50 (Raoultella planticola [26]): Not Active
- MFC (Candida parapsilosis [27]): 62.5 µg/mL (≈ 129 µM)
- MIC (Candida albicans [28]): 31.2 µg/mL (≈ 64.4 µM)
- MBC (Escherichia coli [29]): inactive
- MFC (Candida albicans [30]): 62.5 µg/mL (≈ 129 µM)
- MFC (Candida albicans [31]): inactive
- MBC (Bacillus subtilis [32]): inactive
- MIC (Candida albicans [33]): 62.5 µg/mL (≈ 129 µM)
- MFC ([Candida] aaseri [34]): 62.5 µg/mL (≈ 129 µM)
- MIC (Bacillus subtilis [35]): inactive
- MIC (Staphylococcus aureus [36]): inactive
- IC50 (Bacillus subtilis [37]): Not Active
- MFC (Candida albicans [38]): 62.5 µg/mL (≈ 129 µM)
- MFC (Candida albicans [39]): inactive
- MFC (Candida albicans [40]): inactive
- MBC (Raoultella planticola [41]): inactive
- MIC (Candida albicans [42]): 62.5 µg/mL (≈ 129 µM)
- IC50 (Staphylococcus aureus [43]): Not Active
- MIC (Pichia sporocuriosa [44]): 31.2 µg/mL (≈ 64.4 µM)
- MIC (Candida albicans [45]): inactive
- MIC (Candida albicans [46]): inactive
- MIC (Pseudomonas aeruginosa [47]): inactive
